≈ marks a conversion by molar mass, not a printed value. Read-outs that look alike come from different tables or passages of the source.
What was measured:
Assay type in all cases: cell-based
[1] = tested on: Mycobacterium tuberculosis (Mtb-GFP; H37Rv pMSP12::GFP); assay: microbe, parasite or virus in culture; settings: 168 h, pH 6.8, read-out: Mtb Glu MITC95, glucose carbon source, pH 6.8, 7-day growth, GFP fluorescence, lowest concentration inhibiting 95% of growth
[2] = tested on: mitochondrial protein synthesis in HepG2 cells; assay: Mitochondrial protein synthesis assay (COX-I to SDH-A ratio, In Cell ELISA); settings: 4 days, ratio of COX-I to SDH-A levels, read-out: MPS IC50
Description: Mitochondrial Protein Synthesis Assay
Inhibition of mitochondrial protein synthesis was assessed in HepG2 cells by comparing the levels of two subunits of oxidative phosphorylation enzyme complexes, subunit I of Complex IV (COX-I) and the 70 kDa subunit of Complex II (SDH-A). COX-I is mitochondrial DNA encoded and SDH-A is nuclear DNA encoded. HepG2 cells were seeded in 96-well collagen coated plates at 8,000 cells per well and exposed to 2-fold serial dilutions of compounds from 100 μM to 6.25 μM. Microtiter plates were incubated for approximately 5 replication cycles (4 days) prior to assessment of protein levels using a kit as described by the manufacturer (ab110217 MitoBiogenesis In Cell ELISA Kit, Abcam, Cambridge, MA). Inhibition of mitochondrial protein synthesis was expressed as a ratio of COX-1 to SDH-A levels.

[3] = tested on: Mycobacterium tuberculosis (Mtb-GFP; H37Rv pMSP12::GFP); assay: microbe, parasite or virus in culture; settings: 168 h, pH 6.8, read-out: Mtb Cho MITC95, cholesterol carbon source, pH 6.8, 7-day growth, GFP fluorescence, lowest concentration inhibiting 95% of growth

| SMILES | MIC [1] [µM] | IC50 ([2]; Homo sapiens, HepG2, 96 h) [µM] | MIC [3] [µM] | IC50 [2] [µM] |
| --- | --- | --- | --- | --- |
| COC(=O)NC[C@H]1CC(c2cc(F)c(C3(F)CCS(=O)(=O)CC3)c(F)c2)=NO1 [Example 2, Methyl N-[[(5R)-3-[3,5-difluoro-4-(4-fluoro-1,1-dioxo-thian-4-yl)phenyl]-4,5-dihydroisoxazol-5-yl]methyl]carbamate] | 1.6 (≈ 0.673 µg/mL) | > 100 | 1.6 (≈ 0.673 µg/mL) | – |
| CN1CC(S(=O)(=O)c2ccc(-c3c(F)cc(C4=NO[C@@H](CO)C4)cc3F)cc2)C1 [Example 41, {(5R)-3-[2,6-Difluoro-4′-(1-methylazetidine-3-sulfonyl)[1,1′-biphenyl]-4-yl]-4,5-dihydro-1,2-oxazol-5-yl}methanol] | 1.56 (≈ 0.659 µg/mL) | > 100 | 2.34 (≈ 0.989 µg/mL) | – |
| CN1CC(C)(S(=O)(=O)c2ccc(-c3ccc(C4=NO[C@@H](C(N)=O)C4)cc3F)cc2)C1 [Example 56, (5R)-3-[4′-(1,3-Dimethylazetidine-3-sulfonyl)-2-fluoro[1,1′-biphenyl]-4-yl]-4,5-dihydro-1,2-oxazole-5-carboxamide] | 13 (≈ 5.61 µg/mL) | > 100 | 6.25 (≈ 2.7 µg/mL) | – |
| CN1CC(F)(c2nnc3cc(-c4ccc(C5=NO[C@@H](Cn6ccnn6)C5)cc4F)ccn23)C1 [Example 51, 3-(3-Fluoro-1-methylazetidin-3-yl)-7-(2-fluoro-4-{(5R)-5-[(1H-1,2,3-triazol-1-yl)methyl]-4,5-dihydro-1,2-oxazol-3-yl}phenyl)[1,2,4]triazolo [4.3-a]pyridine] | 0.09 (≈ 0.0405 µg/mL) | 1.4 | 0.09 (≈ 0.0405 µg/mL) | – |
| O=C(NC[C@H]1CC(c2cc(F)c(C3(F)CCS(=O)(=O)CC3)c(F)c2)=NO1)OC1CC1 [Example 50, Cyclopropyl({(5R)-3-[3,5-difluoro-4-(4-fluoro-1,1-dioxo-1λ^6-thian-4-yl)phenyl]-4,5-dihydro-1,2-oxazol-5-yl}methyl)carbamate] | 3.12 (≈ 1.39 µg/mL) | > 100 | 3.12 (≈ 1.39 µg/mL) | – |
| CC(=O)NC[C@H]1CC(c2ccc(-c3ccc(S(=O)(=O)C4(C)CN(C)C4)cc3)c(F)c2)=NO1 [Example 18, N-[[(5R)-3-[4-[4-(1,3-Dimethylazetidin-3-yl)sulfonylphenyl]-3-fluoro-phenyl]-4,5-dihydroisoxazol-5-yl]methyl]acetamide] | 0.39 (≈ 0.179 µg/mL) | 13 | 0.39 (≈ 0.179 µg/mL) | – |
| Fc1cc(C2=NO[C@@H](Cn3ccnn3)C2)ccc1-c1ccn2c(C3CNC3)nnc2c1 [Example 37, 3-(Azetidin-3-yl)-7-(2-fluoro-4-{(5R)-5-[(1H-1,2,3-triazol-1-yl)methyl]-4,5-dihydro-1,2-oxazol-3-yl}phenyl)[1,2,4]triazolo[4,3-a]pyridine] | 0.78 (≈ 0.326 µg/mL) | 65 | 1.56 (≈ 0.653 µg/mL) | – |
| CN1CC(F)(S(=O)(=O)c2ccc(-c3ccc(C4=NO[C@@H](Cn5ccnn5)C4)cc3F)cc2)C1 [Example 44, l-({(5R)-3-[2-Fluoro-4′-(3-fluoro-1-methylazetidine-3-sulfonyl)[1,1′-biphenyl]-4-yl]-4,5-dihydro-1,2-oxazol-5-yl}methyl)-1H-1,2,3-triazole] | 0.09 (≈ 0.0426 µg/mL) | 1.4 | 0.12 (≈ 0.0568 µg/mL) | – |
| CN1CC(S(=O)(=O)c2ccc(-c3ccc(C4=NO[C@@H](Cn5ccnn5)C4)cc3F)cc2)C1 [Example 32, 1-({(5R)-3-[2-Fluoro-4′-(1-methylazetidine-3-sulfonyl)[1,1′-biphenyl]-4-yl]-4,5-dihydro-1,2-oxazol-5-yl}methyl)-1H-1,2,3-triazole] | 0.065 (≈ 0.0296 µg/mL) | 0.77 | 0.09 (≈ 0.041 µg/mL) | – |
| O=S1(=O)CCC(F)(c2c(F)cc(C3=NO[C@@H](Cn4cc(CO)nn4)C3)cc2F)CC1 [Example 40, 4-{2,6-Difluoro-4-[(5R)-5-{[4-(hydroxymethyl)-1H-1,2,3-triazol-1-yl]methyl}-4,5-dihydro-1,2-oxazol-3-yl]phenyl}-4-fluoro-1λ^6-thiane-1,1-dione] | 1.56 (≈ 0.693 µg/mL) | > 100 | 1.56 (≈ 0.693 µg/mL) | – |
| O=S1(=O)CCC(F)(c2c(F)cc(C3=NO[C@@H](Cn4ccnn4)C3)cc2F)CC1 [Example 1, 4-[2,6-Difluoro-4-[(5R)-5-(triazol-1-ylmethyl)-4,5-dihydroisoxazol-3-yl]phenyl]-4-fluoro-thiane 1,1-dioxide] | 1.2 (≈ 0.497 µg/mL) | 93 | 1.2 (≈ 0.497 µg/mL) | – |
| CN1CC(C)(S(=O)(=O)c2ccc(-c3ccc(C4=NO[C@@H](Cn5ccnn5)C4)c(F)c3F)cc2)C1 [Example 26, 1-({(5R)-3-[4′-(1,3-Dimethylazetidine-3-sulfonyl)-2,3-difluoro[1,1′-biphenyl]-4-yl]-4,5-dihydro-1,2-oxazol-5-yl}methyl)-1H-1,2,3-triazole] | 0.39 (≈ 0.19 µg/mL) | 28 | 0.39 (≈ 0.19 µg/mL) | – |
| CN1CC(S(=O)(=O)c2ccc(-c3ccc(C4=NO[C@@H](CNS(C)(=O)=O)C4)cc3F)cc2)C1 [Example 11, N-({(5R)-3-[2-Fluoro-4′-(1-methylazetidine-3-sulfonyl)[1,1′-biphenyl]-4-yl]-4,5-dihydro-1,2-oxazol-5-yl}methyl)methanesulfonamide] | 0.975 (≈ 0.47 µg/mL) | > 100 | 1.17 (≈ 0.563 µg/mL) | – |
| CS(=O)(=O)NC[C@H]1CC(c2cc(F)c(C3(F)CCS(=O)(=O)CC3)c(F)c2)=NO1 [Example 53, N-({(5R)-3-[3,5-Difluoro-4-(4-fluoro-1,1-dioxo-1λ^6-thian-4-yl)phenyl]-4,5-dihydro-1,2-oxazol-5-yl}methyl) methanesulfonamide] | 6.25 (≈ 2.75 µg/mL) | > 100 | 6.25 (≈ 2.75 µg/mL) | – |
| CN1CC(C)(S(=O)(=O)c2ccc(-c3ccc(C4=NO[C@@H](CNC(=O)C5(C)CC5)C4)cc3F)cc2)C1 [Example 27, N-({(5R)-3-[4′-(1,3-Dimethylazetidine-3-sulfonyl)-2-fluoro[1,1′-biphenyl]-4-yl]-4,5-dihydro-1,2-oxazol-5-yl}methyl)-1-methylcyclopropane-1-carboxamide] | 0.78 (≈ 0.39 µg/mL) | 37 | 0.78 (≈ 0.39 µg/mL) | – |
| N=S1(=O)CCC(F)(c2c(F)cc(C3=NO[C@@H](Cn4ccnn4)C3)cc2F)CC1 (stereo partly drawn) [Example 38, 4-(2,6-Difluoro-4-{(5R)-5-[(1H-1,2,3-triazol-1-yl)methyl]-4,5-dihydro-1,2-oxazol-3-yl}phenyl)-4-fluoro-1-imino-1λ^6-thian-1-one] | 0.78 (≈ 0.322 µg/mL) | – | 1.56 (≈ 0.645 µg/mL) | 44 |
| CN1CC(C)(S(=O)(=O)c2ccc(-c3ccc(C4=NO[C@@H](Cn5ccnn5)C4)cc3F)cc2)C1 [Example 3, (5R)-3-[4-[4-(1,3-Dimethylazetidin-3-yl)sulfonylphenyl]-3-fluoro-phenyl]-5-(triazol-1-ylmethyl)-4,5-dihydroisoxazole] | 0.12 (≈ 0.0563 µg/mL) | 6.2 | 0.14 (≈ 0.0657 µg/mL) | – |
| CN1CC(Oc2ccc(-c3ccc(C4=NO[C@@H](CO)C4)cc3F)cc2)C1 [Example 35, [(5R)-3-{2-Fluoro-4′-[(1-methylazetidin-3-yl)oxy][1,1′-biphenyl]-4-yl}-4,5-dihydro-1,2-oxazol-5-yl]methanol] | 3.12 (≈ 1.11 µg/mL) | > 50 | 3.12 (≈ 1.11 µg/mL) | – |
| CN1CC(C)(S(=O)(=O)c2ccc(-c3ccc(C4=NO[C@@H](CNC(=O)C56CC(C5)C6)C4)cc3F)cc2)C1 [Example 28, N-({(5R)-3-[4′-(1,3-Dimethylazetidine-3-sulfonyl)-2-fluoro[1,1′-biphenyl]-4-yl]-4,5-dihydro-1,2-oxazol-5-yl}methyl)bicyclo[1.1.1] pentane-1-carboxamide] | 1.56 (≈ 0.798 µg/mL) | 62 | 0.78 (≈ 0.399 µg/mL) | – |
| CN1CC(F)(C(F)(F)c2ccc(-c3ccc(C4=NO[C@@H](Cn5ccnn5)C4)cc3F)cc2)C1 [Example 15, (5R)-3-[4-[4-[Difluoro-(3-fluoro-1-methyl-azetidin-3-yl)methyl]phenyl]-3-fluoro-phenyl]-5-(triazol-1-ylmethyl)-4,5-dihydroisoxazole] | 0.035 (≈ 0.0161 µg/mL) | 4.3 | 0.055 (≈ 0.0253 µg/mL) | – |
| COC(=O)NC[C@H]1CC(c2cc(F)c(N3CCS(=O)(=O)CC3)c(F)c2)=NO1 [Example 4, Methyl N-[[(5R)-3-[4-(1,1-dioxo-1,4-thiazinan-4-yl)-3,5-difluoro-phenyl]-4,5-dihydroisoxazol-5-yl]methyl]carbamate] | 3.12 (≈ 1.26 µg/mL) | > 100 | 3.12 (≈ 1.26 µg/mL) | – |
| CN1CC(CF)(S(=O)(=O)c2ccc(-c3ccc(C4=NO[C@@H](Cn5ccnn5)C4)cc3F)cc2)C1 [Example 25, 1-{[(5R)-3-{2-Fluoro-4′-[3-(fluoromethyl)-1-methylazetidine-3-sulfonyl][1,1′-biphenyl]-4-yl}-4,5-dihydro-1,2-oxazol-5-yl]methyl}-1H-1,2,3-triazole] | 0.19 (≈ 0.0926 µg/mL) | 2.5 | 0.09 (≈ 0.0439 µg/mL) | – |
| CN=S1(=O)CCC(F)(c2c(F)cc(C3=NO[C@@H](CNC(C)=O)C3)cc2F)CC1 (stereo partly drawn) [Example 29, N-{[(5R)-3-{3,5-Difluoro-4-[4-fluoro-1-(methylimino)-1-oxo-1λ^6-thian-4-yl]phenyl}-4,5-dihydro-1,2-oxazol-5-yl]methyl}acetamide] | 1.56 (≈ 0.651 µg/mL) | > 100 | 1.56 (≈ 0.651 µg/mL) | – |

From patent US20260035363A1, “COMPOUNDS AND METHODS OF USE THEREOF AS ANTIBACTERIAL AGENTS” (priority 2019, published 2026)
